Test results taken from patent publication US20190246658A1, “METHODS OF HANDLING PAPAYA” (AGROFRESH INC., priority 2013, published 2019).

How the values were obtained:
Assay type in all cases: in vivo, papaya
[1] = test system: Papayas ‘Golden’; assay: Example 3: pulp firmness, external, MAP bags with different perforations; settings: for External Firmness - Difference with Untreated Fruits (Δ) / Pulp Firmness - External: 100 ppb of MCP; for External Firmness - Difference with Untreated Fruits (Δ): 5 Days @ 24° C.
Description: Papayas ‘Golden’ were harvested in Linhares—Espírito Santo—Brazil. The fruits were packed in MAP Bags and put in cardboard boxes.
(§1) The appropriate weight of papayas was placed in each bag after harvest. Bags were placed in the same cardboard boxes used to export the fruits. Papayas then were cold stored at (11° C.) at the Laboratory.
(§2) The Test Protocol that was used was as follows. 40 MAP bags were packed. Each bag held approximately 3.8 kg (8.4 lb) of papayas. One of such bag was packed in each cardboard box. Total weight of papayas in MAP bags was approximately 152 kg. Approximately 8 kg of papayas were placed into cardboard boxes identical to those used for the MAP bags.
The MAP-packaged papayas were packaged as follows: Nine fruits, approximately 3.8 kg, were carefully placed into microperforated MAP-bags, and the bags were sealed by twisting the open side of the bag, folding down the twisted end, and placing a rubber band around the twisted and folded end of the bag.
All papayas were kept at cold temperature (11° C.) during 14 days and after that the fruits (packed in MAP bags or not) were put in room temperature (24° C.) during 5 days.
One day after harvest, when the papayas had around 30 lbf of average firmness, each treatment set was marked and placed in a hermetical chamber at cold temperature (11° C.). All chambers were of equal size and packed the same way. Treatment was for 12 hours.
In the chambers, SmartFresh™ was placed at the beginning of the treatment period for the 5 “MCP” treatment groups. The amount of SmartFresh™ was chosen to achieve the indicated concentration of 1-methylcyclopropene in the atmosphere of the chamber.
(§3) Evaluation for skin color and firmness was as follows. Day “zero” was the day the papayas were removed from the chamber and placed in storage.
For External Firmness, the papayas had the skin removed with a peeler and the pulp firmness was measured with a Firmness Texture Analyzer (FTA) with a probe of 8 mm.

[2] = test system: Papayas ‘Golden’; assay: Example 1: pulp firmness, internal (FTA); settings: for Pulp Firmness - Internal: 100 ppb of MCP
Description: (§4) Papayas ‘Golden’ were harvested in Linhares—Espírito Santo—Brazil. The harvested fruits were packed in MAP Bags and put in cardboard boxes.
as §1
as §2, with “follows. 36” for “follows. 40”, “One” for “One of”, “approximately 137” for “approximately 152”, “Approximately 91” for “Approximately 8”
(§5) The MAP-packaged papayas were packaged as follows: Nine fruits, approximately 3.8 kg were carefully placed into microperforated bags, and the bags were sealed by twisting the open side of the bag, folding down the twisted end, and placing a rubber band around the twisted and folded end of the bag.
(§6) All papayas were kept at cold temperature (11° C.) during 27 days and after that the fruits (packed in MAP bags or not) were put in room temperature (22° C.) during 8 days.
(§7) One day after harvest, when the papayas had around 25 lbf of average firmness, each treatment set was marked, placed in a hermetical chamber at cold temperature (11° C.). All chambers were of equal size and packed the same way. Treatment was for 12 hours. In the chambers for the 3 “MCP” treatment groups, at the beginning of the treatment period, SmartFresh™ were placed in the chamber. The amount of SmartFresh™ was chosen to achieve the indicated concentration of 1-methylcyclopropene in the atmosphere of the chamber.
as §3
(§8) For the Pulp Firmness evaluation two measurements where done, one for External Firmness and another for Internal Firmness. For External Firmness, the papayas had the skin removed with a peeler and the pulp firmness was measured with a Firmness Texture Analyzer (FTA) with a probe of 8 mm. For Internal Firmness, the papayas were cut transversally and a measurement close to the center of the fruit was taken with the FTA.

[3] = test system: Papayas ‘Golden’; assay: Example 1: pulp firmness, external (FTA, 8 mm probe); settings: 100 ppb of MCP
Description: as §4, §1
as §2, with “follows. 36” for “follows. 40”, “One” for “One of”, “approximately 137” for “approximately 152”, “Approximately 91” for “Approximately 8”
as §5, §6, §7, §3, §8

[4] = test system: Papayas ‘Golden’; assay: Example 2 (yellow stage): pulp firmness, external; settings: for Pulp Firmness - External: 500 ppb of MCP
Description: A similar test to Example 1 but papayas are tested during their yellow stage. Papayas ‘Golden’ were harvested in Linhares—Espírito Santo—Brazil. The fruits were packed in MAP Bags and put in cardboard boxes.
The fruits were first left at room temperature during 3 days to reach yellow maturity stage.
After that the appropriate weight of papayas was placed in each bag after harvest. Bags were placed in the same cardboard boxes used to export the fruits. Papayas then were cold stored at (11° C.) at the Laboratory.
as §2, with “follows. 18” for “follows. 40”, “One” for “One of”, “approximately 68” for “approximately 152”, “Approximately 68” for “Approximately 8”
as §5
All papayas were kept at cold temperature (11° C.) during 26 days and after that the fruits (packed in MAP bags or not) were put in room temperature (22° C.) during 8 days.
After the 3 days for maturation at room temperature, when the papayas had around 5 lbf of average firmness, each treatment set was marked, placed in a hermetical chamber at cold temperature (11° C.). All chambers were of equal size and packed the same way. Treatment was for 12 hr. In the chambers for the 2 “MCP” treatment groups, at the beginning of the treatment period, SmartFresh™ were placed in the chamber. The amount of SmartFresh™ was chosen to achieve the indicated concentration of 1-methylcyclopropene in the atmosphere of the chamber.
as §3
as §8, with “were” for “where”

[5] = MAP bag, 27 days at 11° C. then 0 days @ 22° C.
[6] = MAP bag, 27 days at 11° C. then 4 days @ 22° C.
[7] = MAP bag, 27 days at 11° C. then 8 days @ 22° C.
[8] = No Bag, 27 days at 11° C. then 0 days @ 22° C.
[9] = No Bag, 27 days at 11° C. then 4 days @ 22° C.
[10] = No Bag, 27 days at 11° C. then 8 days @ 22° C.

With `CC1=CC1` [MCP, 1-methylcyclopropene] the “external firmness during shelf-life, in words” value ([1]; 1-MCP alone (no MAP)) was “not high enough external firmness”, the “External Firmness - Difference with Untreated Fruits (Δ)” value (“External Firmness - Difference … (Δ)” below) ([1]; 24 Perf. MAP bag) was 2.59 lbf and the “Pulp Firmness - External” value ([1]; 24 Perf. MAP bag, 14 days at 11° C. then 3 days @ 24° C.) was 5.23 lbf. The “Pulp Firmness - External” value ([1]; 24 Perf. MAP bag, 14 days at 11° C. then 5 days @ 24° C.) was 4.12 lbf, the “External Firmness - Difference … (Δ)” value ([1]; 48 Perf. MAP bag) was 0.89 lbf and the “Pulp Firmness - External” value ([1]; 48 Perf. MAP bag, 14 days at 11° C. then 3 days @ 24° C.) was 3.68 lbf. The “Pulp Firmness - External” value ([1]; 48 Perf. MAP bag, 14 days at 11° C. then 5 days @ 24° C.) was 2.42 lbf, the “External Firmness - Difference … (Δ)” value ([1]; 90 Perf. MAP bag) was 1.75 lbf and the “Pulp Firmness - External” value ([1]; 90 Perf. MAP bag, 14 days at 11° C. then 3 days @ 24° C.) was 3.94 lbf. For the same compound, the “Pulp Firmness - External” value ([1]; 90 Perf. MAP bag, 14 days at 11° C. then 5 days @ 24° C.) was 3.28 lbf, the “External Firmness - Difference … (Δ)” value ([1]; 180 Perf. MAP bag) was 1.27 lbf and the “Pulp Firmness - External” value ([1]; 180 Perf. MAP bag, 14 days at 11° C. then 3 days @ 24° C.) was 3.64 lbf. For the same compound, the “Pulp Firmness - External” value ([1]; 180 Perf. MAP bag, 14 days at 11° C. then 5 days @ 24° C.) was 2.80 lbf, the “External Firmness - Difference … (Δ)” value ([1]; No Bag) was 1.09 lbf and the “Pulp Firmness - External” value ([1]; No Bag, 14 days at 11° C. then 3 days @ 24° C.) was 6.23 lbf. For the same compound, the “Pulp Firmness - External” value ([1]; No Bag, 14 days at 11° C. then 5 days @ 24° C.) was 2.62 lbf, the “internal firmness during shelf-life, in words” value ([2]; 1-MCP alone (no MAP)) was “too high internal firmness” and the “Pulp Firmness - Internal” value [2, 5] was 3.3 lbf. For the same compound, the “Pulp Firmness - Internal” value [2, 6] was 3.2 lbf, the “Pulp Firmness - Internal” value [2, 7] was 1.5 lbf and the “Pulp Firmness - Internal” value [2, 8] was 16.9 lbf. The “Pulp Firmness - Internal” value [2, 9] was 12.2 lbf, the “Pulp Firmness - Internal” value [2, 10] was 3.2 lbf and the “Pulp Firmness - External” value [3, 5] was 17.1 lbf. The “Pulp Firmness - External” value [3, 6] was 17.0 lbf, the “Pulp Firmness - External” value [3, 7] was 6.2 lbf and the “Pulp Firmness - External” value [3, 8] was 25.0 lbf. The “Pulp Firmness - External” value [3, 9] was 23.4 lbf, the “Pulp Firmness - External” value [3, 10] was 7.8 lbf and the “external firmness during shelf-life, in words” value ([4]; 1-MCP alone, compared to the present invention (1-MCP + MAP)) was “lower efficiency to maintain external firmness”. The “Pulp Firmness - External” value ([4]; MAP bag, 26 days at 11° C. then 0 days @ 22° C.) was 3.84 lbf, the “Pulp Firmness - External” value ([4]; MAP bag, 26 days at 11° C. then 4 days @ 22° C.) was 1.98 lbf and the “Pulp Firmness - External” value ([4]; MAP bag, 26 days at 11° C. then 8 days @ 22° C.) was 1.30 lbf. The “Pulp Firmness - External” value ([4]; No Bag, 26 days at 11° C. then 0 days @ 22° C.) was 3.03 lbf, the “Pulp Firmness - External” value ([4]; No Bag, 26 days at 11° C. then 4 days @ 22° C.) was 1.88 lbf and the “Pulp Firmness - External” value ([4]; No Bag, 26 days at 11° C. then 8 days @ 22° C.) was 1.11 lbf.
